# Laboratory results: PMC12339163, “Combining Plant Bioactives With Antibiotics for Enhanced Antibiofilm Activity Against Uropathogenic Staphylococcus spp. and Cytotoxicity Evaluation” (Advances in Pharmacological and Pharmaceutical Sciences, 2025)
# Legend:
# Type in all cases: cell-based
# [1] = system: Raw 264.7 macrophages; assay: Cytotoxicity, MTT assay; details: Mus musculus, RAW264.7, 48 h, Raw 264.7, MTT, read-out: IC50
# Procedure: (§1) Two cell lines, including Raw 264.7 macrophages and the urinary epithelial cell line UROtsa obtained from the American Type Culture Collection (Rockville, MD, USA), were used. They were cultured in Dulbecco's modified Eagle's medium (DMEM), which was supplemented with 10% fetal bovine serum (FBS) and 1% penicillin, streptomycin, and fungizone (PSF). They were then grown at 37°C in a humidified environment containing 5% CO2.
# (§2) The cytotoxicity of the selected synergistic combinations, as well as the individual constituents of combinations, against the abovementioned cell lines was performed by the MTT assay as previously described. Briefly, cells from each line were harvested in the logarithmic phase using trypsin (0.05% trypsin, 0.02% EDTA in PBS). Cell suspension was diluted with an appropriate growth medium to obtain a cell density of 10^4 cells/well. A 100 µL aliquot of each suspension was seeded into 96-well cell culture plates and incubated at 37°C in an atmosphere of 5% CO2 and 95% relative humidity. After 24 h of incubation, 100 µL of samples (ATBs and NPs) at concentrations varying from 0.01, 0.1, 1, 10, 100, and 1000, as well as the synergistic combinations (C1 to C5), was added to the wells containing the cells. Doxorubicin was used as a positive control. Appropriate controls with an equivalent concentration of DMSO were also included. Plates were incubated for 48 h, then the medium in each well was aspirated, and MTT solution (2 mg/mL in PBS) was diluted 1:10 with fresh medium and added to each well, and the plates were further incubated at 37°C for 4 h. Absorbance was measured on a BioTek microplate reader at 570 nm. The percentage of cell viability was calculated by comparing treated and untreated cells using the equation [39]:(3) cell viability %=ODtest/ODcontrol×100.
# (§3) Then, the IC50 values of the samples having shown at least 50% inhibition were calculated by plotting the percentage of inhibition against the concentrations.
# [2] = system: UROtsa urinary epithelial cells; assay: Cytotoxicity, MTT assay; details: Epithelial cell, 48 h, read-out: IC50
# Procedure: as §1, §2, §3
# [3] = system: Staphylococcus epidermidis biofilm; assay: Checkerboard combination assay, biofilm eradication; details: S. epidermidis biofilm eradication; natural product alone; mean MBEC
# Procedure: (§4) The effect of the combination of ATBs with NPs on the preformed biofilm was evaluated by determining the FICI, as described above for biofilm formation, with slight modifications. After biofilm formation for 24 h, the plate was gently emptied and washed three times with PBS. Then, 50 µL of ATBs and 50 µL of NPs were introduced to the plate. The final concentration ranges from 0.0625 to 128 µg/mL and from 4 to 512 µg/mL for ATBs and NPs, respectively, and is incubated at 37°C for 24 h. After incubation, the medium was gently removed, and the plate was washed three times with PBS. At the end of the incubation time, the MTT reduction assay was performed, and the MBEC was determined. To assess the effect of the combination, the FICI was calculated and interpreted as described above.
# [4] = system: Staphylococcus saprophyticus biofilm; assay: as above; details: S. saprophyticus biofilm eradication; natural product alone; mean MBEC
# Procedure: as §4
SMILES,IC50 [1],IC50 [2],MBEC Alone NPs [3],MBEC Alone NPs [4]
"COc1cccc2c1C(=O)c1c(O)c3c(c(O)c1C2=O)C[C@@](O)(C(=O)CO)C[C@@H]3O[C@H]1C[C@H](N)[C@H](O)[C@H](C)O1 [Doxorubicin, doxorubicin]",1.26 µg/mL,1.58 µg/mL,,
O=c1c(O)c(-c2ccc(O)c(O)c2)oc2cc(O)cc(O)c12 [Quer],,,170.66 µg/mL,256 µg/mL
